Tests used:
[1] = tested on: IL-1β; test: IL-1β secretion of neutrophils pre-treated with CM of SCP28 cancer cells (ELISA); format: cell-based; settings: human neutrophils pre-treated with CM of SCP28 with CTSC overexpressed; FIG. 7H
Procedure: ELISA kits were used to assay the levels of human IL-1β (88-7621-88, ThermoFisher), mouse IL-1β (432604, Biolegend), mouse IL6 (88-7064-88, ThermoFisher), mouse CCL3 (88-56013-88, ThermoFisher) in cell culture supernatants or sera according to the manufacturer's instruction. Briefly, 96-well MaxiSorp™ ELISA Plates (44-2404, ThermoFisher) was coated with capture antibody overnight at 4° C. in coating buffer (15 mM of Na2CO3, 35 mM of NaHCO3, at pH 9.6). After three washes in PBS, the wells were blocked with 5% BSA in PBS for 45 min at room temperature. Then, 100 μl of cell culture supernatants or sera and standard samples were added into the wells and incubated for 2 h at room temperature, and the plates were washed three times with washing buffer (1% BSA, 0.05% Tween-20 in PBS). Next, biotin-conjugated detection antibody in 2.5% BSA was added into the wells and incubated for 2 h at room temperature. After three washes with washing buffer, HRP-streptavidin was incubated for 45 min at room temperature. Then, signals were detected using TMB solution and read at 450 nm.

[2] = tested on: neutrophils; test: Formation of NETs in neutrophils stimulated by cancer cell conditioned medium (immunofluorescence, MPO and Ci-H3); format: cell-based, mice; settings: CM of lung-/liver-metastatic breast cancer and bone-metastatic lung cancer cells, with or without brensocatib; FIGS. 11D, F, I
Procedure: To isolate neutrophil from bone marrow, bone marrow cells from 8 to 12-weeks-old BALB/c mice were harvested in sterile Hank's buffered salt solution (HBSS) without Ca^2+/Mg^2+ (14185052, Invitrogen), and laid on top of a 2-layer Percoll (17089102, GE Healthcare) gradient (72% and 63.5% in HBSS), followed by centrifugation at 1,200 g for 30 min at 25° C. Neutrophils enriched in the interface of 63.5%-72% fractions were confirmed to be of >95% purity by flow cytometry analysis. To isolate neutrophils from peripheral blood of mice, whole blood was collected via cardiac puncture (1 ml per animal) and suspended in HBSS (2 ml per animal) with 15 mM EDTA. After centrifugation (400 g, 10 min, 4° C.), white cells were resuspended in 2 ml HBSS with 2 mM EDTA. […] The purity of the isolated neutrophils was determined by May-Grunwald-Giemsa staining (40751ES02, Yea-sen). […]
To assess NET formation, neutrophils (2.5×10^5 cells) were seeded on coverslips coated with poly-L-lysine (P4707, Sigma) in 24-well plates for 30 min before adding 10% cancer cell CM, Sivelestat (10 μM), PMA (20 nM, Sigma), Cl-amidine (100 μM, Selleck) and/or DNase I (1 μg/ml). […] NET area quantification was performed using the DANA method (Rebernick et al., “DNA area and NETosis analysis (DANA): a high-throughput method to quantify neutrophil extracellular traps in fluorescent microscope images,” Biol. Proced. Online 20:7 (2018)). […]

[3] = tested on: hepatocellular carcinoma cells HUH7; test: NET-promoted tumor sphere formation, liver cancer; format: cell-based; settings: neutrophil medium, CM with or without brensocatib, FIG. 11N
Procedure: To test the therapeutic effects of brensocatib in different cancer types in vitro, the ability of brensocatib to inhibit NET-promoted tumor sphere formation is investigated. The neutrophils are cultured with conditioned medium from tumor cells of colon cancer, liver cancer, lung cancer, gastric cancer and pancreatic cancer with or without brensocatib treatment to activate NETosis, and then the neutrophil medium was used in tumor sphere formation of these cancer cells to analyze the effect of neutrophil medium to facilitate tumor cell growth. The amount of tumorsphere in each sample is then determined by imaging.

Row | SMILES | IL-1β levels (secretion) of neutrophils [1] | formation of NETs [2] | NET-promoted tumor sphere formation (in vitro tumor growth) [3]
1 | CC(C)(C)C(=O)Oc1ccc(S(=O)(=O)Nc2ccccc2C(=O)NCC(=O)O)cc1 [Silvelestat] | reduces | – | –
2 | Cn1c(=O)oc2ccc(-c3ccc(C[C@@H](C#N)NC(=O)[C@@H]4CNCCCO4)cc3)cc21 [brensocatib, (2S)—N-{(1S)-1-cyano-2-[4-(3-methyl-2-oxo-2,3-dihydro-1,3-benzoxazol-5-yl)phenyl]ethyl}-1,4-oxazepane-2-carboxamide] | – | significantly reduced | inhibit in vitro tumor growth

Reference: patent US12697328B2, “Methods for treating metastasis with cathepsin C inhibitors” (Shanghai Institute of Nutrition and Health, Chinese Academy …, priority 2020, dated 2026)
